Molecules are shown by their SMILES.

Data set [1] is described as follows: Optical property of dyes in DMSO (Table 1). The following applies: for Optical Property (in DMSO) Excitation: unit assumed. It is filed as physicochemical.
In another data set the target is T1, HDAC1-Nluc (Homo sapiens, UniProt Q13547).
T1 construct: NanoLuc luciferase (Nluc); expressed in transfected cells; host or cells: HeLa
Nature of the data set: Direct-luciferase-detection thermal shift assay, HDAC1-Nluc (Example 7). Particulars: HeLa cells then digitonin, 10 uL of 1 mM stock per well. The format is binding. Here is the method: (§1) The cells were seeded into 96-well tall-chimney PCR plate (Fisherbrand) at a density of 2×10^4 cells/well in a 90 uL/well volume and treated with 10 uL of 10% DMSO (Sigma) or 10 uL of a 1 mM stock solution of test compound in 10% DMSO. […] The plates were placed into a thermal cycler (MW Research) where the samples were heated individually at different temperatures spanning a gradient of 42-66° C. across the plate for 3 minutes followed by cooling at 22° C. for 3 minutes. 100 uL/well was then transferred to a tissue culture plate (Corning), and luminescence was measured on a BMG Clariostar luminometer equipped with a 450 nm BP filter. Data was normalized by relating RLU signals to the RLU of the lowest temperature for the respective sample.

Another data set has as its target T2, CDK2-Nluc (Homo sapiens, UniProt P24941).
T2 construct: NanoLuc luciferase (Nluc); expressed in transfected cells; host or cells: HeLa
Briefly: Direct-luciferase-detection thermal shift assay, compound selectivity, CDK2-Nluc (Example 6). It is filed as binding. Particulars: HeLa cells then digitonin, 10 uL of 1 mM stock per well. Here is the method: as §1, with “HeLa cells were transfected separately with CDK2-Nluc or Nluc-ABL1 DNA at a 1:100 DNA ratio and incubated overnight. […] The cells” for “The cells”, “plates were then incubated for ½ hour in a humidified, 37° C./5% CO2 incubator prior to addition of 10 uL/well of a 0.5 mg/ml solution of digitonin (Sigma) and 10% DMSO (Sigma). The plates were placed into” for “plates were placed into”, “3 minutes. Furimazine Live Cell Substrate (Promega) was added to a final concentration of 1× in 20 uL/well volume. 100 uL/well” for “3 minutes. 100 uL/well”, “respective sample. Data was then fitted to obtain apparent melting temperature where the protein was precipitating (Tagg values) using the Boltzmann Sigmoidal equation with Graphpad Prism software.” for “respective sample.”

The target in a further data set is T3, Nluc-ABL1 (Homo sapiens, UniProt P00519).
T3 construct: NanoLuc luciferase (Nluc); expressed in transfected cells; host or cells: HeLa
Briefly: Direct-luciferase-detection thermal shift assay, compound selectivity, Nluc-ABL1 (Example 6). It is filed as binding. Particulars: Nluc-ABL1, HeLa cells then digitonin, 10 uL of 1 mM stock per well. As to the method: as §1, with “HeLa cells were transfected separately with CDK2-Nluc or Nluc-ABL1 DNA at a 1:100 DNA ratio and incubated overnight. […] The cells” for “The cells”, “plates were then incubated for ½ hour in a humidified, 37° C./5% CO2 incubator prior to addition of 10 uL/well of a 0.5 mg/ml solution of digitonin (Sigma) and 10% DMSO (Sigma). The plates were placed into” for “plates were placed into”, “3 minutes. Furimazine Live Cell Substrate (Promega) was added to a final concentration of 1× in 20 uL/well volume. 100 uL/well” for “3 minutes. 100 uL/well”, “respective sample. Data was then fitted to obtain apparent melting temperature where the protein was precipitating (Tagg values) using the Boltzmann Sigmoidal equation with Graphpad Prism software.” for “respective sample.”

T1 sequence (Q13547 whole entry): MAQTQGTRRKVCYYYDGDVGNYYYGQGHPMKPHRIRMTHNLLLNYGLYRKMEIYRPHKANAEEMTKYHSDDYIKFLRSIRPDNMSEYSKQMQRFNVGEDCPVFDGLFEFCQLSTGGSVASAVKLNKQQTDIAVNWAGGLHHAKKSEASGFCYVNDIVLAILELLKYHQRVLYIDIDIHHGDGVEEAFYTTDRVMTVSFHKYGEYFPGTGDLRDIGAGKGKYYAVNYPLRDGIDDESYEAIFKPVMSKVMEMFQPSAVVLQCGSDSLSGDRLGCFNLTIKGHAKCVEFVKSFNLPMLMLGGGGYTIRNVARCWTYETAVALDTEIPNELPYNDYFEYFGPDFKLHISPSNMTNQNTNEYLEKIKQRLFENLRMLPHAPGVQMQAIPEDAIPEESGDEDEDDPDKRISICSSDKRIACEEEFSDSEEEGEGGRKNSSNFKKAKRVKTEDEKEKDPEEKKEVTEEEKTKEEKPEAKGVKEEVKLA
T3 sequence (P00519 whole entry): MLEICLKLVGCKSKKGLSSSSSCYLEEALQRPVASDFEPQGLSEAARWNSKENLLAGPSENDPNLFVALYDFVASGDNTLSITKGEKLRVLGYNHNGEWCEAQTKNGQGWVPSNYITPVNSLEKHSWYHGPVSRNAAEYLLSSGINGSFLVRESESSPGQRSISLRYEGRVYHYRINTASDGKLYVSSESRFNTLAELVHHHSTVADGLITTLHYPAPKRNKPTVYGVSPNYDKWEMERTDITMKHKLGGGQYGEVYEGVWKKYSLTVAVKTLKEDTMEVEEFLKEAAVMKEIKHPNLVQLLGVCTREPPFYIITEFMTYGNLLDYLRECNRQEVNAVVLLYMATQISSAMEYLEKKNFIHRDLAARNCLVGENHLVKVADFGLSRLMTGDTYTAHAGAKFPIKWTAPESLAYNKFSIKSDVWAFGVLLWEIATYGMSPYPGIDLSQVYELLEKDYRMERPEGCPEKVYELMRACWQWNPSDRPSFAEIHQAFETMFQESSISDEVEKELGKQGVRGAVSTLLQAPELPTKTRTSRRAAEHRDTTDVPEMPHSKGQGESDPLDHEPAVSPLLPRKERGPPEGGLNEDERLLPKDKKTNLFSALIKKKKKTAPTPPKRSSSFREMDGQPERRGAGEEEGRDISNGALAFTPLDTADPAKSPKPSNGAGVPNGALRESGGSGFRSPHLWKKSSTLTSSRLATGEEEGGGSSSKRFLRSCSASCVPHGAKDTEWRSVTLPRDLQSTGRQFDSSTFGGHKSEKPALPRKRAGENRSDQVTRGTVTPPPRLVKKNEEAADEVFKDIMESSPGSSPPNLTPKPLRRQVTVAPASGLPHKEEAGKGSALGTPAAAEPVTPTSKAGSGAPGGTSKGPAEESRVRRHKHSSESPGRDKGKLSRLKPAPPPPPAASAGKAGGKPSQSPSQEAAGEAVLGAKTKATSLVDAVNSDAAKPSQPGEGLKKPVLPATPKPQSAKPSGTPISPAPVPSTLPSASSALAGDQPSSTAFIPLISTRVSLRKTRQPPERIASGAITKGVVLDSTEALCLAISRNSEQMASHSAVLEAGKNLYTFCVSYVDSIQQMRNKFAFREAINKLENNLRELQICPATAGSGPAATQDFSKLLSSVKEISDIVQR

In data set [1], `CCCCCCN(CCCCCC)c1ccc(/C=C/c2cc[n+](CCCC(=O)NCCOCCOCCOCCC(=O)OC(C)(C)C)cc2)cc1.[Br-]` [CS0100, (E)-4-(4-(Dihexylamino)styryl)-1-(2,2-dimethyl-4,17-dioxo-3,7,10,13-tetraoxa-16-azaicosan-20-yl)pyridin-1-ium chloride] showed an Optical Property (in DMSO) Emission of 480 nm and an Optical Property (in DMSO) Excitation of 622 nm.

For the molecule `Nc1ccccc1NC(=O)c1ccc(CNc2nccc(-c3cccnc3)n2)cc1` [Mocetinostat], the “shift in melting temperature (apparent Tagg) compared to the controls” value on HDAC1-Nluc was “significant shift in melting temperature (apparent Tagg)”. On to `CCCCCCN(CCCCCC)c1ccc(/C=C/C=C/c2cc[n+](CCCS(=O)(=O)[O-])cc2)cc1` [CS0024], for which, in data set [1], the Optical Property (in DMSO) Emission worked out at 516 nm and the Optical Property (in DMSO) Excitation worked out at 702 nm.

As for `O=C(CCCCCCNC(=O)c1cnc(N(c2ccccc2)c2ccccc2)nc1)NO` [ACY1215], the “shift in melting temperature (apparent Tagg) compared to the controls” value at HDAC1-Nluc is “significant shift in melting temperature (apparent Tagg)”.

On to `CCCCCCN(CCCCCC)c1ccc(/C=C/c2cc[n+](CCCC(=O)N(CCCS(=O)(=O)[O-])CCCS(=O)(=O)O)cc2)cc1` [CS0073, (E)-3-(4-(4-(4-(Dihexylamino)styryl)pyridin-1-ium-1-yl)-N-(3-sulfopropyl)butanamido)propane-1-sulfonate], for which, in data set [1], the Optical Property (in DMSO) Emission was 480 nm and the Optical Property (in DMSO) Excitation was 620 nm. For `CCCCCCN(CCCCCC)c1ccc(/C=C/c2cc[n+](CCCC(=O)O)cc2)cc1.[Br-]` [CS0036, (E)-1-(3-Carboxypropyl)-4-(4-(dihexylamino)styryl)pyridin-1-ium chloride] the same measures were 480 nm and 624 nm.

In data set [1], `CCCCCCN(CCCCCC)c1ccc(/C=C/c2cc[n+](CCCC(=O)NCCCS(=O)(=O)[O-])cc2)cc1` [CS0043] showed an Optical Property (in DMSO) Emission of 468 nm and an Optical Property (in DMSO) Excitation of 620 nm. For `CCCCCCN(CCCCCC)c1ccc(/C=C/c2ccc3ccccc3[n+]2C)cc1.[I-]` [CS0085] the same measures were 532 nm and 640 nm.

On to `CCCCCCN(CCCCCC)c1ccc(/C=C/c2cc[n+](C34CC5CC(CC(C5)C3)C4)cc2)cc1.[Br-]` [CS0096], for which, in data set [1], the Optical Property (in DMSO) Emission came out at 480 nm and the Optical Property (in DMSO) Excitation amounted to 618 nm. `Cc1cn(-c2cc(NC(=O)c3ccc(C)c(Nc4nccc(-c5cccnc5)n4)c3)cc(C(F)(F)F)c2)cn1` [Nilotinib]: the “shift in apparent Tagg compared to DMSO controls” value (“shift in apparent Tagg” for short) at CDK2-Nluc is given as “did not result in a significant shift in apparent Tagg”. Regarding `C[S+]([O-])c1ccc(-c2nc(-c3ccncc3)c(-c3ccc(F)cc3)[nH]2)cc1` (stereo not shown) [SB203580], the “shift in apparent Tagg” value on CDK2-Nluc is “did not result in a significant shift in apparent Tagg”; at Nluc-ABL1, “did not”. For the molecule `CCCCCCN(CCCCCC)c1ccc(/C=C/c2cc[n+](CCCC(=O)NCCOCCOCCOCCC(=O)O)cc2)cc1.[Br-]` [CS0045, (E)-1-(1-Carboxy-13-oxo-3,6,9-trioxa-12-azahexadecan-16-yl)-4-(4-(dihexylamino)styryl)pyridin-1-ium chloride], in data set [1], the Optical Property (in DMSO) Emission worked out at 480 nm and the Optical Property (in DMSO) Excitation amounted to 622 nm. `CCCCCCN(CCCCCC)c1ccc(/C=C/c2ccc3c(ccc[n+]3CCCS(=O)(=O)[O-])c2)cc1` [CS0072]: in data set [1], the “Optical Property (in DMSO) Emission” value is on record as “not fluorescent”. Take `CCCCCCN(CCCCCC)c1ccc(/C=C/c2cc[n+](CCCS(=O)(=O)[O-])c3ccccc23)cc1` [CS0028]: in data set [1], the Optical Property (in DMSO) Emission amounted to 560 nm and the Optical Property (in DMSO) Excitation was found to be 680 nm.

On to `CCCCCCN(CCCCCC)c1ccc(/C=C/c2cc[n+](CCCC(=O)OCC)cc2)cc1.[Br-]` [CS0101, (E)-4-(4-(Dihexylamino)styryl)-1-(4-ethoxy-4-oxobutyl)pyridin-1-ium bromide], for which, in data set [1], the Optical Property (in DMSO) Emission stood at 480 nm and the Optical Property (in DMSO) Excitation was 624 nm. For `CCCCCCN(CCCCCC)c1ccc(/C=C/c2cccc[n+]2CCCS(=O)(=O)[O-])cc1` [CS0020] the same measures were 468 nm and 602 nm.

On to `C[n+]1c(/C=C/c2ccc3ccccc3c2)ccc2ccccc21.[I-]` [CS0087], for which, in data set [1], the Optical Property (in DMSO) Emission is 400 nm and the Optical Property (in DMSO) Excitation was determined as 550 nm.

In data set [1], `CCCCCCN(CCCCCC)c1ccc(/C=C/c2cc[n+](CCCS(=O)(=O)[O-])cc2)c2ccccc12` [CS0038] had an Optical Property (in DMSO) Emission of 462 nm and an Optical Property (in DMSO) Excitation of 654 nm. Take `Cn1c(NC[C@@H](N)Cc2ccccc2)nc(-c2ccncc2)c(-c2ccc3ccccc3c2)c1=O` [AMG548]: the figures for the “shift in apparent Tagg” value at CDK2-Nluc and at Nluc-ABL1 were “did not result in a significant shift in apparent Tagg” and “did not”, respectively. In data set [1], `CCCCCCN(CCCCCC)c1ccc(/C=C/c2cc[n+](CC)cc2)cc1.[OH-]` [CS0112] returned an Optical Property (in DMSO) Emission of 480 nm and an Optical Property (in DMSO) Excitation of 620 nm. For the molecule `CCCCCCN(CCCCCC)c1cccc2c(/C=C/c3cc[n+](CCCS(=O)(=O)[O-])cc3)cccc12` [CS0071], in data set [1], the “Optical Property (in DMSO) Emission” value is “not fluorescent”.

On to `CCCCCCN(CCCCCC)c1ccc(/C=C/c2cc[n+](CCC(F)(F)C(F)(F)C(F)(F)C(F)(F)C(F)(F)C(F)(F)F)cc2)cc1.[I-]` [CS0121, (E)-4-(4-(dihexylamino)styryl)-1-(3,3,4,4,5,5,6,6,7,7,8,8,8-tridecafluorooctyl)pyridin-1-iumiodide], for which, in data set [1], the Optical Property (in DMSO) Emission is 480 nm and the Optical Property (in DMSO) Excitation is 620 nm. With `CCCCCCN(CCCCCC)c1ccc(/C=C/C=C/c2cc[n+](CCC[N+](C)(C)C)cc2)cc1` [CS0155], in data set [1], the Optical Property (in DMSO) Emission amounted to 516 nm and the Optical Property (in DMSO) Excitation was found to be 702 nm. For `CCCCCCN(CCCCCC)c1ccc(/C=C/c2ccncc2)cc1` [CS0117, (E)-N,N-Dihexyl-4-(2-(pyridin-4-yl)vinyl)aniline] the same measures were 468 nm and 620 nm.

On to `CCCCCCN(CCCCCC)c1ccc(/C=C/C=C/c2cc[n+](CCCC(=O)NCCOCCOCCOCCC(=O)OC(C)(C)C)cc2)cc1` [CS0147], for which, in data set [1], the Optical Property (in DMSO) Emission is 516 nm and the Optical Property (in DMSO) Excitation is 702 nm. For `CCCCCCN(CCCCCC)c1ccc(/C=C/C2=[N+](C)c3ccccc3C2(C)C)cc1.[I-]` [CS0067] the same measures were 550 nm and 604 nm. For `CCCCCCN(CCCCCC)c1ccc(/C=C/c2cc[n+](CCCC(=O)NCCOCCOCCOCCC(=O)NCCCS(=O)(=O)[O-])cc2)cc1` [CS0048, (E)-21-(4-(4-(Dihexylamino)styryl)pyridin-1-ium-1-yl)-5,18-dioxo-8,11,14-trioxa-4,17-diazahenicos-ane-1-sulfonate] the same measures were 478 nm and 620 nm.

Source of the values: patent US11899021B2, “Luciferase-based thermal shift assays” (Promega Corporation, priority 2015, dated 2024).
